Laboratory results taken from patent publication US12583884B2, “3beta-(benzyloxy)-17alpha-methyl-pregn-5-en-20-one for use in the treatment of cognitive disorders” (AELIS FARMA, priority 2018, dated 2026).
Where two headings read alike, the source gives them in different places. Each block holds one molecule with its values, some of them ahead of it.

Experiments:
[1] = target: T1, wild-type human CB1 receptor (Homo sapiens, UniProt P21554); experiment: THC-induced inhibition of cellular respiration in HEK-293-hCB1-WT; format: cell-based; conditions: THC 1 μM
T1 construct: expressed in transfected cells; host or cells: HEK-293 (transient)
Experimental: In a first study (FIG. 5A), HEK-293 cells were transiently transfected with the wild-type hCB1-expressing plasmid (HEK-293-hCB1-WT). […] After 15 min of incubation, THC (0; 1 μM, dissolved in EtOH, 0.0034%) was added in the culture dishes for 30 minutes.
(§1) Cellular respiration was measured in a calibrated oxygraph equipped with a Clark electrode. Oxygen consumption (OC) rate was used to measure cellular respiration.

Ts65Dn mice = experiment: Short-term sequential object recognition, Down syndrome model; format: in vivo, mouse; conditions: 0.6 μg/ml in drinking water, 2 months, delays 5 and 35 min
Experimental: Mice were allowed to explore 3 different objects (A, B, C) presented one after the other and following one of the two possible sequences: A-C-C-B-A and A-B-C-C-A. In an open field, mice were exposed to object A for 5 min and then placed back into their home cage. After a delay of 5 minutes, mice were exposed to object B or C for 5 min and then placed back into their home cage, and so on. Consequently, the retention delay between two presentations of object C was of 5 minutes whereas the retention delay between two presentations of object A was of 35 minutes. The time spent exploring object A or C at the first presentation was compared with the time exploring the same object at the second presentation. This parameter is used to evaluate object recognition performances.
Before the object recognition procedure, mice were tested in the radial maze.

in vivo = conditions: Ts65Dn and WT, mouse
Excerpt: At the end of the behavioral study, mice were sacrificed, blood and brain samples were collected.

Na+ channels Na+-site 2 = experiment: CEREP binding profile: Na+-site 2; conditions: 10 μM
Excerpt: (§2) The CEREP High-throughput profile consists of a broad collection of 80 transmembrane and soluble receptors, ion channels and G-Protein coupled receptors.

Adenosine A2A = target: T2, Adenosine A2A (Homo sapiens, UniProt P29274); experiment: CEREP binding profile: A2A
T2 construct: CEREP
Excerpt: as §2

[2] = target: T3, Cholecystokinin CCK2 (CCKB) (Homo sapiens, UniProt P32239); experiment: CEREP binding profile: CCK2
T3 construct: CEREP
Excerpt: as §2

[3] = target: T4, Transporters Serotonin 5-HT trans. (Homo sapiens, UniProt P31645); experiment: CEREP binding profile: 5-HT trans.
T4 construct: CEREP (contract panel)
Excerpt: as §2

[4] = target: PXR (non-steroid nuclear receptor) (Homo sapiens, UniProt O75469); experiment: in vitro
Excerpt: as §2

[5] = system: primary culture of rat hepatocytes; experiment: Hepatotoxicity in primary culture of hepatocytes; format: cell-based; conditions: 0.1 to 100 μM; 48 hours
Experimental: The percentage of cytolysed hepatocytes over time was determined by time lapse imaging with a fluorescent cytolysis marker. The number of bile canaliculi after 48 hours of treatment was determined using a fluorescent bile salt analog.
Primary rat hepatocytes from 10-12 weeks old Wistar rats were isolated using a two-step collagenase perfusion method. After 24 hours, cells were covered with a layer of Matrigel to perform a sandwich configuration culture. […] Cells were then stained using a fluorescent bile salt analog to measure the bile canaliculi network state and the Bsep pump activity. Acetaminophen (30 mM) and Cyclosporin A (1 μM) were added as positive controls of hepatotoxicity and biliary canaliculi loss, respectively.

[6] = target: T5, Steroid nuclear receptors GR (Homo sapiens, UniProt P04150); experiment: CEREP binding profile: GR
T5 construct: CEREP
Excerpt: as §2

human CB1 receptor = human CB1 receptor (Homo sapiens, UniProt P21554); experiment: THC-induced decrease of cAMP in CHO-hCB1 cells; format: cell-based; conditions: 1 nM, 10 nM, 100 nM and 1 μM
Experimental: CHO-CB1-C2 cells were treated by concomitantly adding THC and the test compound for 45 minutes. Forskolin (2.5 μM) was also simultaneously added in all the conditions tested to sustain cAMP basal level.
At the end of the treatment, cells were lysed to proceed with the cAMP quantification. All measures were performed in triplicates in one experiment. The quantitative determination of cAMP was performed through a competitive fluorescence immunoassay. Data were expressed as % of Delta Fluorescence (Delta F) that was calculated as follows: Delta F %=(Sample Fluorescence−Negative control Fluorescence)/Negative control Fluorescence.

[7] = 7-day oral safety study in rats; format: in vivo, Sprague-Dawley rats
Experimental: Morbidity/mortality checks were performed twice daily. Clinical observations were performed before the first dosing and then daily. Functional and neurobehavioral tests were performed before the first dosing and on the last day of treatment. Body weight was recorded on Day-1, Day-3, Day-5 and Day-7. Food consumption was measured weekly.
Blood samples for haematology parameters and clinical chemistry analysis were collected on the day of necropsy (Day-8).
Animals were sacrificed on Day-8. Selected organs were weighed, fixed, preserved at necropsy and examined histopathologically.

Purinergic channels P2X = experiment: CEREP binding profile: P2X; conditions: 10 μM
Excerpt: as §2

[8] = target: T6, Calcitonin gene-related CGRP (Homo sapiens, UniProt O60894+Q16602); experiment: CEREP binding profile: CGRP
T6 construct: CEREP
Excerpt: as §2

[9] = target: T7, mutant human CB1 receptor (hCB1p.E1.49G) (Homo sapiens, UniProt P21554, E133G); experiment: THC-induced inhibition of cellular respiration in HEK-293-hCB1-Mut; format: cell-based; conditions: 100 nM, THC 1 μM
T7 construct: expressed in transfected cells; host or cells: HEK-293 (transient)
Experimental: In a second study (FIG. 5B), HEK-293 cells were transiently transfected either with the wild-type hCB1-expressing plasmid (HEK-293-hCB1-WT) or with the mutant hCB1p.E1.49G-expressing plasmid (HEK-293-hCB1-Mut). In this mutant the glutamate amino acid at position 1.49 was substituted by a glycine. […] After 15 min of incubation, THC (0; 1 μM, dissolved in EtOH, 0.0034%) was added in the culture dishes for 30 minutes.
as §1

Prostanoid IP (PGI2) = Prostanoid IP (PGI2) (Homo sapiens, UniProt P43119); experiment: CEREP binding profile: IP
Excerpt: as §2

Prostanoid EP4 = Prostanoid EP4 (Homo sapiens, UniProt P35408); experiment: CEREP binding profile: EP4
Excerpt: as §2

T1 sequence (P21554 whole entry): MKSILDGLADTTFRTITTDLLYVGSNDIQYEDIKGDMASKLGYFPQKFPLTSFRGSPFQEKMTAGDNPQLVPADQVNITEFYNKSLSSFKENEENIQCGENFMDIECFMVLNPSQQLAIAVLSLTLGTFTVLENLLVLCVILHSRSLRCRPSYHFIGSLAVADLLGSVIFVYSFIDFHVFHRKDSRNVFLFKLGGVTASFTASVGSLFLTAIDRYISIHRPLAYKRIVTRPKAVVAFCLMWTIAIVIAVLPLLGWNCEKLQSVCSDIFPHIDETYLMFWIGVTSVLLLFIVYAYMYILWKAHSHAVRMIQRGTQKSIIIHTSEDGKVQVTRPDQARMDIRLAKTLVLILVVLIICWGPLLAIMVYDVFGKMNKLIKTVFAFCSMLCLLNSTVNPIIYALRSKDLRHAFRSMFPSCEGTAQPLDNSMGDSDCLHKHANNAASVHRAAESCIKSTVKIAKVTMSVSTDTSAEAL
Prostanoid EP4, sequence (P35408 whole entry): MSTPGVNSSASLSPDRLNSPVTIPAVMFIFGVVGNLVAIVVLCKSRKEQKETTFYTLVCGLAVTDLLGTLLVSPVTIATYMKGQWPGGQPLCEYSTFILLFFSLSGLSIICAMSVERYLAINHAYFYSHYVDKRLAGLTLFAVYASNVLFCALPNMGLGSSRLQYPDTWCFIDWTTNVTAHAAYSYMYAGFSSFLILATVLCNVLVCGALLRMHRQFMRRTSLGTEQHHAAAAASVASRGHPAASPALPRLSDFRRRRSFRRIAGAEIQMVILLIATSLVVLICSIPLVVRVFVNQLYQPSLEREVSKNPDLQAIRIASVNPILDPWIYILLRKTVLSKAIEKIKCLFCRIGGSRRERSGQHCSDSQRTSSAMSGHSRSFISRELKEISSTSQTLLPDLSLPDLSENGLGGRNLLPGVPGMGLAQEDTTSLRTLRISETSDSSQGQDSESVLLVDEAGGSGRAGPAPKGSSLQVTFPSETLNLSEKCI
T4 sequence (P31645 whole entry): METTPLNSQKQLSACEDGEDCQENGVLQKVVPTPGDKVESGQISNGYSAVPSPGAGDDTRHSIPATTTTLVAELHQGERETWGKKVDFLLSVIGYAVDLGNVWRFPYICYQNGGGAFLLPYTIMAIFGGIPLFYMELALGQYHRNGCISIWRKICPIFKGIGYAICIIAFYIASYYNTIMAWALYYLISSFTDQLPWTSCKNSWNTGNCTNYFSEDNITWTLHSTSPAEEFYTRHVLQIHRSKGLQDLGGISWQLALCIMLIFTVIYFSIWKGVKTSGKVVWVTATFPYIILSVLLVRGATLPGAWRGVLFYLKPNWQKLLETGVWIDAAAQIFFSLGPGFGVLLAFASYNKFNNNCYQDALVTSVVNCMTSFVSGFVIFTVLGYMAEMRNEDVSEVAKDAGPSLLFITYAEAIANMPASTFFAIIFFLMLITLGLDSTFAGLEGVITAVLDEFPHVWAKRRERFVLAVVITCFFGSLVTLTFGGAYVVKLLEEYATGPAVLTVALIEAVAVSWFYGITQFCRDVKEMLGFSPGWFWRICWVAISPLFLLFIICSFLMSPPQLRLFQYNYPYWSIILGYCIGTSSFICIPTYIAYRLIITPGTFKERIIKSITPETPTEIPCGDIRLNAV
T2 sequence (P29274 whole entry): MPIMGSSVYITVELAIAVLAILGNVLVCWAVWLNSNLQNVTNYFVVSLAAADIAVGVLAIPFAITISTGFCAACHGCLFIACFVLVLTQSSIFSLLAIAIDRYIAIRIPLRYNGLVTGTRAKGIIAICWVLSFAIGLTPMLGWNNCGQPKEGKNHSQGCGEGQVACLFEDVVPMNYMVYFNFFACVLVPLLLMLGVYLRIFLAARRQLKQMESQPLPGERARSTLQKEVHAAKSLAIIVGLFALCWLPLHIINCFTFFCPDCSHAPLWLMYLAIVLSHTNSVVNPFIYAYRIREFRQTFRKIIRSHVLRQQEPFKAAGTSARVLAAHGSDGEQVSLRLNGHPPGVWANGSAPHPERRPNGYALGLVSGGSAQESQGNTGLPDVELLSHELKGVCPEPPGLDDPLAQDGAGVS
Prostanoid IP (PGI2), sequence (P43119 whole entry): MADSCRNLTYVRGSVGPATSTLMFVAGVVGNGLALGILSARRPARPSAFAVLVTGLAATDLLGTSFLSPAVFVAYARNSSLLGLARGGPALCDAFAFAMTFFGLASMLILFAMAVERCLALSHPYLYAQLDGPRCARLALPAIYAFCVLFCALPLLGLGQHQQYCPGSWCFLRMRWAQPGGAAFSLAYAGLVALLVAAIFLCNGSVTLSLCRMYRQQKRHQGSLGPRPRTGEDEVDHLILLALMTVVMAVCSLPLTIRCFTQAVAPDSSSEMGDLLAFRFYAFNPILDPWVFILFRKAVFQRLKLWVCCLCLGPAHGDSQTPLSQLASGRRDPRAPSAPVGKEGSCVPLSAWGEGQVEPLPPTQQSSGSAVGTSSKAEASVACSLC
T6 sequence (Q16602 23-461): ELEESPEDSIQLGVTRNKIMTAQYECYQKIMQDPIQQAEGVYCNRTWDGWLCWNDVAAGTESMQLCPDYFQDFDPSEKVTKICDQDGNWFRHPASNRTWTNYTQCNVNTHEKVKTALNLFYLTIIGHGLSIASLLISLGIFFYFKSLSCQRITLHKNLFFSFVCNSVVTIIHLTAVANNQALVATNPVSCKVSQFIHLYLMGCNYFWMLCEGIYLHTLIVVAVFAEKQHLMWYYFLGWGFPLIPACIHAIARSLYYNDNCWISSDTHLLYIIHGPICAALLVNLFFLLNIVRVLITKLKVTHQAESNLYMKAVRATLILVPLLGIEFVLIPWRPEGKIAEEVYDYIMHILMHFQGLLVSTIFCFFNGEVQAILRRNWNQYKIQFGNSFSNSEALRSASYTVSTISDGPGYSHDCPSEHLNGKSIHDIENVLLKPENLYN
T6 sequence (O60894 27-148 partner): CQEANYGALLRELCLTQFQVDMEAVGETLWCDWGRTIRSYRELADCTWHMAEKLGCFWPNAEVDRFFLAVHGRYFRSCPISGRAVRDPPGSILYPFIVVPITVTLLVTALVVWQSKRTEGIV
T3 sequence (P32239 whole entry): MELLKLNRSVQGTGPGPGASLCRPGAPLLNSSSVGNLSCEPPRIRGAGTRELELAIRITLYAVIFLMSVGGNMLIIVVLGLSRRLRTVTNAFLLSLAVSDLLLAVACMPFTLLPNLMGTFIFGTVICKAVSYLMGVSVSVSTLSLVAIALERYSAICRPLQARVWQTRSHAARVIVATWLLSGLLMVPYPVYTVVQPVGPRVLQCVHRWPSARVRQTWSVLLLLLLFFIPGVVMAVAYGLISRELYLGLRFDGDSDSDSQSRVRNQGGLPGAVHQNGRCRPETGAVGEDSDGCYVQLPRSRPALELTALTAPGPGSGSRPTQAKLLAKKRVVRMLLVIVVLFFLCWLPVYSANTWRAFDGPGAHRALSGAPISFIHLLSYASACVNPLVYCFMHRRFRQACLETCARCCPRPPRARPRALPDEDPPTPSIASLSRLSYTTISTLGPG
PXR (non-steroid nuclear receptor), sequence (O75469 whole entry): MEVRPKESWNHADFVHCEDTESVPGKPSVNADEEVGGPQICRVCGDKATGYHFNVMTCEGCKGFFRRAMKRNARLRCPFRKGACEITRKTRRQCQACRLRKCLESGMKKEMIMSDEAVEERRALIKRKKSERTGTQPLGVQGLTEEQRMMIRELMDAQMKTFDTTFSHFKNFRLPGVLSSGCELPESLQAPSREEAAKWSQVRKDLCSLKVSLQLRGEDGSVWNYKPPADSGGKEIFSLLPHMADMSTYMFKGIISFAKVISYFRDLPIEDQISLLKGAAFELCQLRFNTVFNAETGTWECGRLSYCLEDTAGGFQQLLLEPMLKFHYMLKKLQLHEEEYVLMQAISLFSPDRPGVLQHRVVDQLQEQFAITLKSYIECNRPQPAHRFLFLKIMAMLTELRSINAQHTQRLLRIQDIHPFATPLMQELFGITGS
T5 sequence (P04150 whole entry): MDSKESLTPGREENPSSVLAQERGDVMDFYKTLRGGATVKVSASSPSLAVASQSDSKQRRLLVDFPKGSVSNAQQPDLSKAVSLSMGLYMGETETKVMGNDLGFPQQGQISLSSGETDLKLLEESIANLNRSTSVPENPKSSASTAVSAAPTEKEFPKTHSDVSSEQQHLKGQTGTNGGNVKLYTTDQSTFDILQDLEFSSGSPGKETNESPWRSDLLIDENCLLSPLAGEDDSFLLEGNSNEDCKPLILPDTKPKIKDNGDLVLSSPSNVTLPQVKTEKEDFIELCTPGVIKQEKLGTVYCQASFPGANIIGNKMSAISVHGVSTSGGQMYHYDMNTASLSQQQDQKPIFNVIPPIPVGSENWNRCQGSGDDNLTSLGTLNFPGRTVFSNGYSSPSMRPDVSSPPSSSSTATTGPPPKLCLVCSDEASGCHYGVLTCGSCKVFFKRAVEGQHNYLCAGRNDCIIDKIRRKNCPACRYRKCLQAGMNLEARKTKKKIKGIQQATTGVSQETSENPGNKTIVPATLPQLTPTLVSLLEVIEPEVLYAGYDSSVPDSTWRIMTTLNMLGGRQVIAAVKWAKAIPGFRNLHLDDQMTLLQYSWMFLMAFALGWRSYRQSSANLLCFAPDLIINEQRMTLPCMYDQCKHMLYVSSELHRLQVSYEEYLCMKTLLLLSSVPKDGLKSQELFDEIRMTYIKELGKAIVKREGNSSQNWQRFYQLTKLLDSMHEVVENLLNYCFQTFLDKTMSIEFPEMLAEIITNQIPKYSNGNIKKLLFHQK
human CB1 receptor, sequence (P21554 whole entry): as the sequence (P21554 whole entry) above
T7 sequence (P21554 whole entry E133G): as the sequence (P21554 whole entry) above, with E133G counted along it

Compound: CC(=O)[C@@]1(C)CC[C@H]2[C@@H]3CC=C4C[C@@H](OCc5ccccc5)CC[C@]4(C)[C@H]3CC[C@@]21C [3Bn17MeP, 3β-benzyloxy, 17α-methyl-pregn-5-en-20-one]
ID100 ([1]; HEK-293-hCB1): 50 nM
% Inhibition ([1]; HEK-293-hCB1, maximal inhibition of THC effect): 100%
Concentration with significant block of THC-induced inhibition of cellular respiration ([1]; tested 1, 2.5, 5, 50 and 100 nM, Tukey's test): ≥ 2.5 nM
Exploration of the familiar object (short-term sequential object recognition) (Ts65Dn mice): explored significantly less the familiar object after 5 and 35 minutes
concentration at 1 month (in vivo): 1.3 ng/mL
% Inhibition (Na+ channels Na+-site 2): −12%
inhibition at 10 µM (Adenosine A2A): -6%
inhibition at 10 µM [2]: -21%
inhibition at 10 µM [3]: 1%
inhibition at 10 µM [4]: -8%
Hepatotoxic effect (hepatocyte survival) [5]: no hepatotoxic effect
inhibition at 10 µM [6]: -2%
Effect on inhibition of cAMP induced by THC (human CB1 receptor): does not modify
Histopathological changes ([7]; 20 mg/kg per os, 7 days): not associated with any histopathological changes
Total protein level ([7]; 20 mg/kg per os, 7 days): tendency to lower total protein level
Triglyceride level ([7]; 20 mg/kg per os, 7 days): higher triglyceride level
Triglyceride level ([7]; 20 mg/kg per os, 7 days, females): tendency to a lower triglyceride level
Red blood cell counts ([7]; 20 mg/kg per os, 7 days, males): slight tendency to a lower red blood cell counts
White blood cell counts ([7]; 20 mg/kg per os, 7 days, males and females): tendency to a lower white blood cell counts
Signs of toxicity ([7]; 20 mg/kg/day per os, 7 consecutive days): did not induce any sign of toxicity
MTD at 7 days ([7]; both sexes, Sprague-Dawley, rat, in vivo, oral, 20 mg/kg, repeated treatment at a single dose, 7 days per os, read-out: Maximum tolerated dose (MTD)): > 20 mg/kg/day
Inhibition % (Purinergic channels P2X): 8%
inhibition at 10 µM [8]: -15%
Effect on THC-induced decrease in cellular respiration [9]: insensitive
inhibition at 10 µM (Prostanoid IP (PGI2)): 0%
inhibition at 10 µM (Prostanoid EP4): 25%

% Inhibition (Na+ channels Na+-site 2): 23%
inhibition at 10 µM (Adenosine A2A): -1%
inhibition at 10 µM [2]: -38%
inhibition at 10 µM ([3]; 5-HT trans., 10 μM, read-out: % Inhibition): 1%
inhibition at 10 µM ([4]; PXR receptor binding assay (ligand displacement)): 15%
Inhibition % (Purinergic channels P2X): 13%
inhibition at 10 µM [8]: -12%
inhibition at 10 µM (Prostanoid IP (PGI2)): -12%
inhibition at 10 µM (Prostanoid EP4): 21%
Compound: CC(=O)[C@H]1CC[C@H]2[C@@H]3CC=C4C[C@@H](O)CC[C@]4(C)[C@H]3CC[C@]12C [pregnenolone, reference compound]
